Test results from patent publication US12221432B2, “Estrogen receptor antagonist” (CHIA TAI TIANQING PHARMACEUTICAL GROUP CO., LTD., priority 2018, dated 2025).
Structures can show the parent of a compound that is named as a salt.

How the values were obtained:
CYP1A2 = target: T1, CYP1A2 (Homo sapiens, UniProt P05177); assay: Cytochrome P450 isoenzyme inhibition, CYP1A2; assay type: in vitro ADME; conditions: human liver microsomes; read-out: CYP enzyme inhibition (IC50) 1A2
T1 construct: tissue Corning Co., Ltd; host or cells: human liver microsomes
T1 sequence (P05177 1-516): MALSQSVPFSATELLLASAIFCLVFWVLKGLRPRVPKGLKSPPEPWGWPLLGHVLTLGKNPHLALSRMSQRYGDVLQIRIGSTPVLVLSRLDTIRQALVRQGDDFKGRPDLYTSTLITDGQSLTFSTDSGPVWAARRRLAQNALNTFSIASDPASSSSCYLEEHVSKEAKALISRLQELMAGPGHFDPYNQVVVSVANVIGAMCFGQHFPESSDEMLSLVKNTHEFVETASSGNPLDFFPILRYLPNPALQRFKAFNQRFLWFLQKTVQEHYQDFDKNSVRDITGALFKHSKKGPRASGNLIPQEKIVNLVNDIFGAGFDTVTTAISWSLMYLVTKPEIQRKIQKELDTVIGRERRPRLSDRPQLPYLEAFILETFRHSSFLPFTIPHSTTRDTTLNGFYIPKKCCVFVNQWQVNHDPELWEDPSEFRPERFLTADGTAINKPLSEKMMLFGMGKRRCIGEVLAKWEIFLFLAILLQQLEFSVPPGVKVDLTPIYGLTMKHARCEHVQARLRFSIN
Description: Experimental objective: To determine the inhibitory effect of the test compound on the activity of human liver microsomal cytochrome P450 isoenzymes (CYP1A2, CYP2C9, CYP2C19, CYP2D6 and CYP3A4; Corning Co., Ltd.). […]

[1] = Metabolic stability in liver microsome (human); assay type: in vitro ADME, humans
Description: Objective: To determine the metabolic stability of test compounds in the liver microsomes of humans, CD-1 5 mice and SD rats (Corning Co., Ltd., Miaotong Biological Technology Co., Ltd., Miaotong Biological Technology Co., Ltd.).
Procedures: Firstly, eight 96-well plates were prepared, and named T0, T5, T10, T20, T30, T60, NCF60 and BLANK; except for BLANK (added with buffer at 10 μL/well), the plates were added with the solution of compounds at 10 μL/well. Prepared microsomes were added to the 7 plates (80 μL/well), except for the T0 10 plate. The NCF60 plate was added with the buffer at 10 μL/well, and incubated in a 37° C. water bath, and timing was started:
Prepared NADPH cofactor working solution was aliquoted into a 96-well shallow-well plate serving as a loading slot. Each plates was added with the solution to at 10 μL/well by a 96-channel pipette and incubated in a 37° C. water bath to start the reaction:
At each time point, termination solution (cold acetonitrile containing 100 ng/mL Tolbutamide and 100 ng/mL Labetalol as internal standard) was added at 300 μL/well to stop the reaction, and the mixture was mixed well; the mixture was centrifuged at 4000 rpm for 20 minutes to precipitate the protein; the supernatant was transferred at 100 μL/well to a new 96-well plate containing 300 μL/well of HPLC water with a 96-channel pipette, and the mixture was mixed well. […]

- IC50 (CYP1A2): 45.1 µM
- Stability in liver microsomes [1]: 43
Compound: CC/C(=C(/c1ccc(OCCNC/C=C/C(=O)N(C)C)nc1)c1[nH]c2ccccc2c1Cl)c1ccccc1 [Compound 3 monohydrochloride]
